Consider five molecules from the NIST ThermoML archive (doi:10.1021/je049848j).

In general, mass density refers to the mass of a sample divided by its volume. The refractive index is a measure of how strongly the sample bends light.

For series [1] the following is noted: Liquid; for mass density: 293 K, 101.33 kPa, Vibrating tube method; for Normal boiling temperature: Fischer boiling apparatus.
Series [2] in a line: refractive index (Na D-line) (dimensionless). The settings on record: 293 K; 101.33 kPa; Liquid; Standard Abbe refractometry.

± gives the expanded uncertainty stated by the source.

In the case of `CC(=O)O` [acetic acid], in series [1], the mass density was 1049.5 ± 0.5 kg/m3 and the Normal boiling temperature was 117.70 ± 0.2 °C. Besides, the refractive index in series [2] was 1.372 ± 0.0011.

On to `CC(=O)OC1CCCCC1` [cyclohexyl ethanoate], for which, in series [1], the mass density is recorded as 969.2 ± 0.9 kg/m3 and the Normal boiling temperature was 172.60 ± 0.2 °C. The refractive index in series [2] was 1.4398 ± 0.0011.

For `Cc1ccccc1` [toluene], in series [1], the mass density is given as 867.3 ± 0.5 kg/m3 and the Normal boiling temperature was determined as 110.30 ± 0.2 °C. The refractive index in series [2] was 1.496 ± 0.0011.

For `CCC(=O)O` [propanoic acid], in series [1], the mass density was determined as 992.5 ± 0.5 kg/m3 and the Normal boiling temperature came to 140.90 ± 0.2 °C. Besides, in series [2], the refractive index is given as 1.3811 ± 0.0011.

Consider `CCCCCO` [pentan-1-ol], for which, in series [1], the mass density was determined as 814 ± 0.5 kg/m3 and the Normal boiling temperature was 138.00 ± 0.2 °C. Also, in series [2], the refractive index was determined as 1.4104 ± 0.0011.
